In general, pIC50 refers to −log10 of the IC50, conventionally taken in molar units.

pIC50: −log10 of the molar value. Where a name gives a salt, the structure may show the parent alone.

Here are results for 27 compounds from patent publication US12590083B2, “Inhibitors of spinster homolog 2 (SPNS2) for use in therapy” (University of Virginia Patent Foundation, priority 2019, dated 2026).

This experiment addresses T1, human SPNS2 (Homo sapiens, UniProt Q8IVW8).
T1 construct: expressed in transfected cells; host or cells: Saccharomyces cerevisiae strain with forced expression of a mammalian SphK and human SPNS2
T1 sequence (Q8IVW8 1-549): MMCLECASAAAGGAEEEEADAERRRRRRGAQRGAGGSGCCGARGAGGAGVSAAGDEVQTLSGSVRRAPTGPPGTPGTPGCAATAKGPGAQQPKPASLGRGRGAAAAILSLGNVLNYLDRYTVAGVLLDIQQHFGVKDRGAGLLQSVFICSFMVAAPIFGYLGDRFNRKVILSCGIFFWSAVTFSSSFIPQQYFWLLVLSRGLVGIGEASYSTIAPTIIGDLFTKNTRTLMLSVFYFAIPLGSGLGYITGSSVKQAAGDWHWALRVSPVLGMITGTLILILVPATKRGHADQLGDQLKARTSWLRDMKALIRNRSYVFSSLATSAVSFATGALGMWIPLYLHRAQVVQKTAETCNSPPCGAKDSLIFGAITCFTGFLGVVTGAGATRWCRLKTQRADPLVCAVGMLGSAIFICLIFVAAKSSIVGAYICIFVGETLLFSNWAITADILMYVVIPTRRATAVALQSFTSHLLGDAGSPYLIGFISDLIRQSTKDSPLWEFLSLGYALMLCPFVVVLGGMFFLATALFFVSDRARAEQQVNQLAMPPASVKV
Briefly: S1P transporter assay: growth of S. cerevisiae strain with forced expression of a mammalian SphK and human SPNS2. In kind it is cell-based. The conditions noted are these: in vitro inhibition of SPNS2; growth of S. cerevisiae strain expressing mammalian SphK and human SPNS2; compounds as their pharmaceutical salts. From the text:
Transporter assays are vectorial and, therefore, require measurement of the transported analyte in different compartments. The assay of S1P transporters is problematic because S1P is exported, but not imported, by SPNS2, which obviates measuring uptake of mass- or radio-labeled S1P into transporter-expressing cells.
To assay for SPNS2 inhibitor hits, we took advantage of the growth inhibitory effects of excessive levels of phosphorylated Long Chain Base (phospho-LCB) levels on the budding yeast, S. cerevisiae (Kharel Y, et al. Saccharomyces cerevisiae as a platform for assessing sphingolipid lipid kinase inhibitors. PLoS One 13, e0192179 (2018) PMC5908134). Yeast lack the desaturase that converts dihydroceramide to ceramide and, therefore, have neither sphingosine nor S1P. Rather, yeast have the reduced form, dihydrosphingosine, and the 4-hydroxyl analog, phytosphingosine and their respective phosphates. Like all eukaryotes, the yeast synthesizes (via LCB kinases (SphKs)) and degrades (via phospho-LCB lyase and phosphatase) phospho-LCBs, (dhS1P, phytoS1P). Yeast lack phospho-LCB transporters such as SPNS2, which are found only in vertebrates. To assess inhibition of SPNS2 in vitro, we used a strain of S. cerevisiae wherein expression of a mammalian SphK and human SPNS2 were forced. SPNS2 inhibitors decrease the growth of this strain. Table 2 below presents in vitro inhibition data against SPNS2 for exemplary compounds, presented here as their pharmaceutical salts, of the disclosure (A≤2 μM, B>2 μM).
Take `N=C(N)N1CCC[C@@H](c2nc(-c3ccc(OCc4ccc(C(F)(F)F)cc4)c(C(F)(F)F)c3)no2)C1` [Compound 23h, (R)-3-(3-(3-(trifluoromethyl)-4-((4-(trifluoromethyl)benzyl)oxy)phenyl)-1,2,4-oxadiazol-5-yl)piperidine-1-carboximidamide hydrochloride]: the negative-log IC50 (pIC50) is below 5.70. The same measure for `N=C(N)N1CC(c2nc(-c3ccc(OCCCc4ccccc4)c(C(F)(F)F)c3)no2)C1` [Compound 23i, 3-(3-(4-(3-phenylpropoxy)-3-(trifluoromethyl)phenyl)-1,2,4-oxadiazol-5-yl)azetidine-1-carboximidamide hydrochloride]: below 5.70; for `N=C(N)N1CCC[C@@H](c2nc(-c3ccc(OCCCc4ccccc4)c(C(F)(F)F)c3)no2)C1` [Compound 23j, (R)-3-(3-(4-(3-phenylpropoxy)-3-(trifluoromethyl)phenyl)-1,2,4-oxadiazol-5-yl)piperidine-1-carboximidamide hydrochloride]: below 5.70; for `CCCCCCCCCc1ccc(-c2noc([C@@H]3CCCNC3)n2)cc1C(F)(F)F` [Compound 28d, (R)-3-(4-nonyl-3-(trifluoromethyl)phenyl)-5-(piperidin-3-yl)-1,2,4-oxadiazole hydrochloride]: below 5.70. Consider `CCCCCCCCCCc1ccc(-c2noc([C@@H]3CCCNC3)n2)cc1C(F)(F)F` [Compound 28e, (R)-3-(4-decyl-3-(trifluoromethyl)phenyl)-5-(piperidin-3-yl)-1,2,4-oxadiazole hydrochloride], for which the pIC50 is below 5.70. As to `CCCCCCCCCCCc1ccc(-c2noc([C@@H]3CCCNC3)n2)cc1C(F)(F)F` [Compound 28f, (R)-5-(piperidin-3-yl)-3-(3-(trifluoromethyl)-4-undecylphenyl)-1,2,4-oxadiazole hydrochloride], the pIC50 is below 5.70. Then `CCCCCCCCCCc1ccc(-c2noc(C[C@@H]3CCNC3)n2)cc1C(F)(F)F` [Compound 28g, (S)-3-(4-decyl-3-(trifluoromethyl)phenyl)-5-(pyrrolidin-3-ylmethyl)-1,2,4-oxadiazole hydrochloride], with below 5.70; and `CCCCCCCCCc1ccc(-c2noc(C3CN(C(=N)N)C3)n2)cc1C(F)(F)F` [Compound 30a, 3-(3-(4-nonyl-3-(trifluoromethyl)phenyl)-1,2,4-oxadiazol-5-yl)azetidine-1-carboximidamide hydrochloride], with at least 5.70; and `CCCCCCCCCCc1ccc(-c2noc(C3CN(C(=N)N)C3)n2)cc1C(F)(F)F` [Compound 30b, 3-(3-(4-decyl-3-(trifluoromethyl)phenyl)-1,2,4-oxadiazol-5-yl)azetidine-1-carboximidamide hydrochloride], with at least 5.70. For `CCCCCCCCCCCc1ccc(-c2noc(C3CN(C(=N)N)C3)n2)cc1C(F)(F)F` [Compound 30c, 3-(3-(3-(trifluoromethyl)-4-undecylphenyl)-1,2,4-oxadiazol-5-yl)azetidine-1-carboximidamide hydrochloride], the pIC50 was below 5.70. As to `CCCCCCCCCc1ccc(-c2noc([C@@H]3CCCN(C(=N)N)C3)n2)cc1C(F)(F)F` [Compound 30d, (R)-3-(3-(4-nonyl-3-(trifluoromethyl)phenyl)-1,2,4-oxadiazol-5-yl)piperidine-1-carboximidamide hydrochloride], the pIC50 is at least 5.70.

Turning to `CCCCCCCCCCc1ccc(-c2noc([C@@H]3CCCN(C(=N)N)C3)n2)cc1C(F)(F)F` [Compound 30e, (R)-3-(3-(4-decyl-3-(trifluoromethyl)phenyl)-1,2,4-oxadiazol-5-yl)piperidine-1-carboximidamide hydrochloride], the pIC50 is at least 5.70. For `CCCCCCCCCCCc1ccc(-c2noc([C@@H]3CCCN(C(=N)N)C3)n2)cc1C(F)(F)F` [Compound 30f, (R)-3-(3-(3-(trifluoromethyl)-4-undecylphenyl)-1,2,4-oxadiazol-5-yl)piperidine-1-carboximidamide hydrochloride], the pIC50 was below 5.70. Consider `CCCCCCCCCCc1ccc(-c2noc(C[C@@H]3CCN(C(=N)N)C3)n2)cc1C(F)(F)F` [Compound 30g, (S)-3-((3-(4-decyl-3-(trifluoromethyl)phenyl)-1,2,4-oxadiazol-5-yl)methyl)pyrrolidine-1-carboximidamide hydrochloride], for which the pIC50 was below 5.70. Consider `C/C(=N\OCCCCc1ccccc1)c1ccc(-c2noc([C@@H]3CCNC3)n2)cc1` [Compound 38a, (R)-1-(4-(5-(pyrrolidin-3-yl)-1,2,4-oxadiazol-3-yl)phenyl)ethan-1-one O-(4-phenylbutyl) oxime hydrochloride], for which the negative-log IC50 (pIC50) is at least 5.70. Regarding `C/C(=N\OCc1cc(C(F)(F)F)cc(C(F)(F)F)c1)c1ccc(-c2noc([C@@H]3CCNC3)n2)cc1` [Compound 38b, (R)-1-(4-(5-(pyrrolidin-3-yl)-1,2,4-oxadiazol-3-yl)phenyl)ethan-1-one O-(3,5-bis(trifluoromethyl)benzyl) oxime hydrochloride], the pIC50 is at least 5.70. The same measure for `C/C(=N\OCc1ccc(C(F)(F)F)cc1)c1ccc(-c2noc([C@@H]3CCNC3)n2)cc1` [Compound 38c, (R)-1-(4-(5-(pyrrolidin-3-yl)-1,2,4-oxadiazol-3-yl)phenyl)ethan-1-one O-(4-(trifluoromethyl)benzyl) oxime hydrochloride]: below 5.70. The same measure for `C/C(=N\OCc1ccc(-c2ccccc2)cc1)c1ccc(-c2noc([C@@H]3CCNC3)n2)cc1` [Compound 38d, (R)-1-(4-(5-(pyrrolidin-3-yl)-1,2,4-oxadiazol-3-yl)phenyl)ethan-1-one O-([1,1′-biphenyl]-4-ylmethyl) oxime hydrochloride]: below 5.70. Then `C/C(=N\OCc1ccccc1)c1ccc(-c2noc([C@@H]3CCNC3)n2)cc1` [Compound 38g, (R)-1-(4-(5-(pyrrolidin-3-yl)-1,2,4-oxadiazol-3-yl)phenyl)ethan-1-one O-benzyl oxime hydrochloride], with below 5.70; and `C/C(=N\OCc1ccc2c(c1)C(C)(C)CCC2(C)C)c1ccc(-c2noc([C@@H]3CCNC3)n2)cc1` [Compound 38h, (R)-1-(4-(5-(pyrrolidin-3-yl)-1,2,4-oxadiazol-3-yl)phenyl)ethan-1-one O-((5,5,8,8-tetramethyl-5,6,7,8-tetrahydronaphthalen-2-yl)methyl) oxime hydrochloride], with below 5.70. With `CCCCCCCO/N=C(\C)c1ccc(-c2noc([C@@H]3CCNC3)n2)cc1` [Compound 38i, hydrochloride], the pIC50 was below 5.70. `CCCCCCCCCO/N=C(\C)c1ccc(-c2noc([C@@H]3CCNC3)n2)cc1` [Compound 38j, hydrochloride]: the pIC50 was below 5.70.

`C/C(=N\OCc1ccc(C(C)(C)C)cc1)c1ccc(-c2noc([C@@H]3CCNC3)n2)cc1` [Compound 38k, (R,E)-1-(4-(5-(pyrrolidin-3-yl)-1,2,4-oxadiazol-3-yl)phenyl)ethan-1-one O-(4-(tert-butyl)benzyl) oxime hydrochlorid]: the negative logarithm of the IC50 (pIC50) was at least 5.70. In the case of `CCCCCO/N=C(\C)c1ccc(-c2noc([C@@H]3CCNC3)n2)cc1` [Compound 38l, (R)-1-(4-(5-(pyrrolidin-3-yl)-1,2,4-oxadiazol-3-yl)phenyl)ethan-1-one O-pentyl oxime hydrochloride], the pIC50 is below 5.70. With `C/C(=N\OCc1ccc(Br)cc1)c1ccc(-c2noc([C@@H]3CCNC3)n2)cc1` [Compound 38n, (R)-1-(4-(5-(pyrrolidin-3-yl)-1,2,4-oxadiazol-3-yl)phenyl)ethan-1-one O-(4-bromobenzyl) oxime hydrochloride], the pIC50 was at least 5.70. On to `CCCCNC(=O)c1ccc(-c2noc([C@@H]3CCNC3)n2)cc1` [Compound 38o, (R)—N-butyl-4-(5-(pyrrolidin-3-yl)-1,2,4-oxadiazol-3-yl)benzamide hydrochloride], for which the pIC50 was below 5.70. As for `CCCCCCCCNC(=O)c1ccc(-c2noc([C@@H]3CCNC3)n2)cc1` [Compound 38p, (R)—N-octyl-4-(5-(pyrrolidin-3-yl)-1,2,4-oxadiazol-3-yl)benzamide hydrochloride], the pIC50 was below 5.70.
